Laboratory results as given in patent US20250326815A1, “STAPLE-CONTAINING POLYPEPTIDES AND APPLICATION THEREOF” (Soter Biopharma Pte. Ltd., priority 2021, published 2025).
pEC50: −log10 of the molar value.

Tests used:
GCGR = target: T1, GCGR (Homo sapiens, UniProt P47871); assay: In vitro agonistic activity on GCGR (cAMP assay); format: cell-based; conditions: HEK293 cell line; for Agonistic activity on GCGR Max Activity (%): Max Dose 100 nM
T1 construct: host or cells: HEK293
Method: (§1) The cell lines were constructed by Shanghai WuXi AppTec.
(§2) The compounds to be assayed were serially diluted 4-fold with Bravo to obtain 10 concentrations, with a starting concentration of 30 μM.
(§3) 1) 100 nL of the compound was transferred to an OptiPlate-384 plate using Echo.
(§4) 2) The OptiPlate-384 plate was centrifuged at 1000 rpm for 5 seconds.
(§5) 1) A GLP-1R/GIPR/GCGR cell cryopreservation tube was quickly placed in warm water at 37° C. to thaw.
(§6) 2) The cell suspension was transferred to a 15 mL centrifuge tube, and gently washed with 10 ml of HBSS.
(§7) 3) The centrifuge tube was centrifuged at 1000 rpm at room temperature for 1 minute.
(§8) 4) The supernatant was discarded.
(§9) 5) The cells at the bottom were gently dispersed and gently washed with 10 ml of HBSS. The cells were centrifuged and sedimented, and finally resuspended with the assay buffer.
(§10) 6) Vi-cell was used to measure the cell density and viability.
(§11) 7) The concentration of GLP-1R/GIPR/GCGR cells was diluted to 2.0*105/mL with the assay buffer.
(§12) 8) […] of the diluted cell suspension was transferred to the OptiPlate-384 plate.
(§13) 9) The plate was incubated at room temperature for 30 minutes.
(§14) 1) 10 μL of 800 nM gradient diluted cAMP standard was added into an empty well of the OptiPlate-384 plate.
(§15) 2) 10 μL of cAMP assay reagent was added.
(§16) 3) The OptiPlate-384 plate was covered with a TopSeal-A film and incubated at room temperature for 60 minutes.
(§17) The TopSeal-A was peeled off and the plate was read on the EnVision.

GIPR = target: T2, GIPR (Homo sapiens, UniProt P48546); assay: In vitro agonistic activity on GIPR (cAMP assay); format: cell-based; conditions: CHO cell line; for Agonistic activity on GIPR Max Activity (%): Max Dose 20 nM
T2 construct: host or cells: CHO
T2 sequence (P48546 22-466): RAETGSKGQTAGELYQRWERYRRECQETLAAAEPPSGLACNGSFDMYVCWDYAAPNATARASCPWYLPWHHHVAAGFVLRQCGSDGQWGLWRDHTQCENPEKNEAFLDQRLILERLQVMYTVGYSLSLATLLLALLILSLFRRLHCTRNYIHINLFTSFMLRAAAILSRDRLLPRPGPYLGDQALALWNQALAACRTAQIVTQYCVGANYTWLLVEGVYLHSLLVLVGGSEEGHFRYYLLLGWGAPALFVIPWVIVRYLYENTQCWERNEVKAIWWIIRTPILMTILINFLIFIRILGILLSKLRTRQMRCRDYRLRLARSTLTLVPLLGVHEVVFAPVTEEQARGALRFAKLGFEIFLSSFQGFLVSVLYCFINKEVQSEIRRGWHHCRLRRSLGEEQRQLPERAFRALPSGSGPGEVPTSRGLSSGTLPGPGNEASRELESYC
Method: as §1, §2, §3, §4, §5, §6, §7, §8, §9, §10, §11, §12, §13, §14, §15, §16, §17

DIO mice = assay: Drug efficacy study in DIO mice (weight loss); format: in vivo; conditions: 10 nmol/kg subcutaneous, once every three days
Method: The weight loss effect of the assay compound in DIO mice was studied.
1. After arriving at the facility, the DIO mice were raised in an animal breeding room with strictly controlled environmental conditions. The temperature in the breeding room was maintained at 20 to 24° C., and the humidity was maintained at 30 to 70%. The temperature and humidity in the breeding room were monitored in real time using a thermo-hygrometer, and the temperature and humidity were recorded twice a day (once in the morning and once in the afternoon). The lighting in the animal breeding room was controlled by an electronic timed lighting system. The lights were on for 12 hours and off for 12 hours every day (turned on at 7:00 am and turned off at 19:00 pm). During the assay, the animals were raised in individual cages and toys were provided in each cage. During the assay, the animals had free access to food (growth/breeding feed for rats and mice) and water.
2. The animals in each group were subcutaneously injected with a solvent or an assay compound (10 nmol/kg), respectively. The administration time was 9:30 in the morning. The administration frequency was once every three days, and the administration cycle was 21 days.

human plasma albumin = assay: Plasma protein binding (PPB), human; format: in vitro ADME; set-up: key: NA indicates that the plasma protein binding is too high, and no free drug is detected at a normal plasma protein concentration; conditions: ultracentrifugation
Method: (§18) The binding degree of the assay compound to human/mouse plasma albumin was studied.
(§19) 1. Matrix preparation: on the day of the assay, plasma was thawed in cold water and centrifuged at 3220 rpm for 5 min to remove all clots. The pH of the resulting plasma was measured and adjusted to 7.4±0.1 using 1% phosphoric acid or IN sodium hydroxide as needed.
(§20) 2. Dilution procedure for the assay compound: the assay compound was dissolved in dimethyl sulfoxide (DMSO) to prepare stock solutions with concentrations of 10 mM and 2 mM, respectively. A 40 μM working solution was prepared by diluting 2 μL of stock solution (2 mM) with 98 μL of DMSO. A 400 μM working solution of the control compound was prepared by diluting 10 μL of stock solution with 240 μL of DMSO. The working solution of the compound (5 μL) was mixed well with a blank matrix (995 μL) at a ratio of 1:200 to prepare a loading matrix.
(§21) 3.1 An equal volume of 30 μL of loading matrix (n=2) was transferred to a sample collection plate to prepare a time 0 (T0) sample for residue determination. […]
(§22) 3.4 At the end of centrifugation, 30 μL of protein-free samples and 30 μL of T samples were transferred from the second layer of the supernatant (below the top layer) to a new sample collection plate. […] The mixture was centrifuged at 4000 rpm for 20 min and 100 μL of supernatant from each sample was analyzed by LC-MS/MS.

mouse plasma albumin = assay: Plasma protein binding (PPB), mouse; format: in vitro ADME; set-up: key: NA indicates that the plasma protein binding is too high, and no free drug is detected at a normal plasma protein concentration; conditions: ultracentrifugation
Method: as §18, §19, §20, §21, §22

T1 sequence (P47871 26-477, species assumed): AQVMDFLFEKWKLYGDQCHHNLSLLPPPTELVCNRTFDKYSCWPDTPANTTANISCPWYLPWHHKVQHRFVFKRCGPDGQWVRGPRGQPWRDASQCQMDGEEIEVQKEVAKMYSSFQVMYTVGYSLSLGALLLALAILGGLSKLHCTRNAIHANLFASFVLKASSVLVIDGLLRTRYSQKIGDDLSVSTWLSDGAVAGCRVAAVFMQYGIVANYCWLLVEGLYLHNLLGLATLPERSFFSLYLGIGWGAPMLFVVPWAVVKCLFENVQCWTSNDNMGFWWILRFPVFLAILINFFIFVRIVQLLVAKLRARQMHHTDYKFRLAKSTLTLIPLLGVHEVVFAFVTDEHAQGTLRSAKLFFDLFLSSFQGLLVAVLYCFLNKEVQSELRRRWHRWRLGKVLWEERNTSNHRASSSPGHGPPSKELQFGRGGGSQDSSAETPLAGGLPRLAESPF

| SMILES | pEC50 (GCGR) | Agonistic activity on GCGR Max Activity (%) (GCGR) | pEC50 (GIPR) | Agonistic activity on GIPR Max Activity (%) (GIPR) | ΔBody weight % (comparison of the body weight after 21 days with the body weight on day 1) (DIO mice) [%] | PPB % unbound (human) (human plasma albumin) | PPB % unbound (mouse) (mouse plasma albumin) |
| --- | --- | --- | --- | --- | --- | --- | --- |
| CC(C)C[C@H](NC(=O)[C@H](CC(C)C)NC(=O)[C@H](Cc1c[nH]c2ccccc12)NC(=O)[C@H](CCC(=O)O)NC(=O)[C@@H](NC(=O)[C@H](Cc1ccccc1)NC(=O)[C@H](CCC(=O)O)NC(=O)[C@@H]1CCCCNC(=O)CN(C(=O)COCCOCCNC(=O)COCCOCCNC(=O)CC[C@H](NC(=O)CCCCCCCCCCCCCCCCCCC(=O)O)C(=O)O)CC(=O)NCCCC[C@H](NC(=O)[C@H](CCC(=O)O)NC(=O)[C@H](CC(=O)O)NC(=O)[C@H](CC(C)C)NC(=O)[C@H](Cc2ccc(O)cc2)NC(=O)[C@H](CCCCN)NC(=O)[C@H](CO)NC(=O)[C@H](Cc2ccc(O)cc2)NC(=O)[C@H](CC(=O)O)NC(=O)[C@H](CO)NC(=O)[C@@H](NC(=O)[C@H](Cc2ccccc2)NC(=O)[C@@H](NC(=O)CNC(=O)[C@H](CCC(N)=O)NC(=O)C(C)(C)NC(=O)[C@@H](N)Cc2c[nH]cn2)[C@@H](C)O)[C@@H](C)O)C(=O)N[C@@H](CCCCN)C(=O)N[C@@H](C)C(=O)N1)C(C)C)C(=O)N[C@@H](CCC(=O)O)C(=O)NCC(=O)NCC(=O)N1CCC[C@H]1C(=O)N[C@@H](CO)C(=O)N[C@@H](CO)C(=O)NCC(N)=O [WX001] | 10.57 | 98.93 | < 7.70 | 2.26 | −28.91 | NA/NA | NA/NA |
| CC(C)C[C@H](NC(=O)[C@H](CC(C)C)NC(=O)[C@H](Cc1c[nH]c2ccccc12)NC(=O)[C@@H]1CCCCNC(=O)CN(C(=O)COCCOCCNC(=O)COCCOCCNC(=O)CC[C@H](NC(=O)CCCCCCCCCCCCCCCCCCC(=O)O)C(=O)O)CC(=O)NCCCC[C@H](NC(=O)[C@H](C)NC(=O)[C@H](CCCCN)NC(=O)[C@H](CCCCN)NC(=O)[C@H](CCC(=O)O)NC(=O)[C@H](CC(=O)O)NC(=O)[C@H](CC(C)C)NC(=O)[C@H](Cc2ccc(O)cc2)NC(=O)[C@H](CCCCN)NC(=O)[C@H](CO)NC(=O)[C@H](Cc2ccc(O)cc2)NC(=O)[C@H](CC(=O)O)NC(=O)[C@H](CO)NC(=O)[C@@H](NC(=O)[C@H](Cc2ccccc2)NC(=O)[C@@H](NC(=O)CNC(=O)[C@H](CCC(N)=O)NC(=O)C(C)(C)NC(=O)[C@@H](N)Cc2c[nH]cn2)[C@@H](C)O)[C@@H](C)O)C(=O)N[C@@H](CCC(=O)O)C(=O)N[C@@H](Cc2ccccc2)C(=O)N[C@@H](C(C)C)C(=O)N1)C(=O)N[C@@H](CCC(=O)O)C(=O)NCC(=O)NCC(=O)N1CCC[C@H]1C(=O)N[C@@H](CO)C(=O)N[C@@H](CO)C(=O)NCC(N)=O [WX004] | 10.27 | 68.62 | < 7.70 | 4.12 | −31.89 | NA/NA | NA/NA |
